{"source": "patent US10150760B2", "about": "“Compounds for use in preparing heterocyclic triazole agonists of the APJ receptor” (AMGEN INC., priority 2016, dated 2018)", "biological_target": "human APJ receptor (Homo sapiens (Human), UniProt P35414)", "sequence (P35414 whole entry)": "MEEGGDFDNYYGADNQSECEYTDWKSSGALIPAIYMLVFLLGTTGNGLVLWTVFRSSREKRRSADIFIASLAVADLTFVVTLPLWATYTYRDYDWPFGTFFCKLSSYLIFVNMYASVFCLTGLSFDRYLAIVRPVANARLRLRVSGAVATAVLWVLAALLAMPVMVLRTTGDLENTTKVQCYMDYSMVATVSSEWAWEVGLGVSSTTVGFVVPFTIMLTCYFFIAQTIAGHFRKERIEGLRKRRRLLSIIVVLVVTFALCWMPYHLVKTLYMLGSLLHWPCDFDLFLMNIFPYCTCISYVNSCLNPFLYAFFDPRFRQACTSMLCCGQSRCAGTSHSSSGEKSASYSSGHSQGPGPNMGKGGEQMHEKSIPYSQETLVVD", "test": "[35S]GTPγS binding assay on membranes from CHO cells stably expressing human APJ receptor", "type": "biochemical", "conditions": "read-out: Activity hAPJ SPA EC50 IP", "how_it_was_run": "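Membranes from CHO cells stably expressing human APJ incubated with ligand, 0.2 nM [35S]GTPγS and WGA SPA beads in HEPES pH 7.5 with 5 mM MgCl2, 200 mM NaCl, 3 μM GDP, 90 min at RT. Nonspecific binding defined with 100 μM GTPγS; EC50 by non-linear regression.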"}
{"molecule": "(1R,2S)-1-(5-chloropyrimidin-2-yl)-1-methoxy-N-(5-((2S,5S)-5-methyltetrahydrofuran-2-yl)-4-(tetrahydro-2H-pyran-4-yl)-4H-1,2,4-triazol-3-yl)propane-2-sulfonamide or (1R,2S)-1-(5-chloropyrimidin-2-yl)-1-methoxy-N-(5-((2R,5R)-5-methyltetrahydrofuran-2-yl)-4-(tetrahydro-2H-pyran-4-yl)-4H-1,2,4-triazol-3-yl)propane-2-sulfonamide [Example 226.0]", "values": [{"measurement": "EC50", "value": 1.4, "unit": "µM"}]}
{"molecule": "COc1cccc(OC)c1-n1c(NS(=O)(=O)[C@@H](C)[C@H](OC)c2ncc(Cl)cn2)nnc1[C@H]1CCCCO1", "note": "(single isomer, unassigned) [Example 84.0, (1R,2S)-1-(5-chloropyrimidin-2-yl)-N-(4-(2,6-dimethoxyphenyl)-5-((S)-tetrahydro-2H-pyran-2-yl)-4H-1,2,4-triazol-3-yl)-1-methoxypropane-2-sulfonamide or (1R,2S)-1-(5-chloropyrimidin-2-yl)-N-(4-(2,6-dimethoxyphenyl)-5-((R)-tetrahydro-2H-pyran-2-yl)-4H-1,2,4-triazol-3-yl)-1-methoxypropane-2-sulfonamide]", "values": [{"measurement": "EC50", "value": 0.0008, "unit": "µM"}]}
{"molecule": "(1R,2S)-N-(5-((R)-1,4-dioxan-2-yl)-4-(1-(pyridin-3-yl)cyclopropyl)-4H-1,2,4-triazol-3-yl)-1-(5-chloropyrimidin-2-yl)-1-methoxypropane-2-sulfonamide or (1R,2S)-N-(5-((S)-1,4-dioxan-2-yl)-4-(1-(pyridin-3-yl)cyclopropyl)-4H-1,2,4-triazol-3-yl)-1-(5-chloropyrimidin-2-yl)-1-methoxypropane-2-sulfonamide [Example 295.0]", "values": [{"measurement": "EC50", "value": 0.016, "unit": "µM"}]}
{"molecule": "COCCn1c(NS(=O)(=O)[C@@H](C)[C@H](OC)c2ncc(Cl)cn2)nnc1[C@H]1CCC(C)(C)O1", "note": "(single isomer, unassigned) [Example 287.0, (1R,2S)-1-(5-chloropyrimidin-2-yl)-N-(5-((R)-5,5-dimethyltetrahydrofuran-2-yl)-4-(2-methoxyethyl)-4H-1,2,4-triazol-3-yl)-1-methoxypropane-2-sulfonamide or (1R,2S)-1-(5-chloropyrimidin-2-yl)-N-(5-((S)-5,5-dimethyltetrahydrofuran-2-yl)-4-(2-methoxyethyl)-4H-1,2,4-triazol-3-yl)-1-methoxypropane-2-sulfonamide]", "values": [{"measurement": "EC50", "value": 0.86, "unit": "µM"}]}
{"molecule": "CO[C@H](c1ncc(Cl)cn1)[C@H](C)S(=O)(=O)Nc1nnc([C@@H]2COCCO2)n1C1CCOCC1", "note": "(single isomer, unassigned) [Example 247.0, (1R,2S)-1-(5-chloro-2-pyrimidinyl)-N-(5-((2R)-1,4-dioxan-2-yl)-4-(tetrahydro-2H-pyran-4-yl)-4H-1,2,4-triazol-3-yl)-1-methoxy-2-propanesulfonamide or (1R,2S)-1-(5-chloro-2-pyrimidinyl)-N-(5-((2S)-1,4-dioxan-2-yl)-4-(tetrahydro-2H-pyran-4-yl)-4H-1,2,4-triazol-3-yl)-1-methoxy-2-propanesulfonamide]", "values": [{"measurement": "EC50", "value": 0.24, "unit": "µM"}]}
{"molecule": "C[C@H](c1ncc(Cl)cn1)[C@H](C)S(=O)(=O)Nc1nnc([C@@H]2COCCO2)n1C1CCOCC1", "note": "(single isomer, unassigned) [Example 246.0, (2S,3R)-3-(5-chloro-2-pyrimidinyl)-N-(5-((2R)-1,4-dioxan-2-yl)-4-(tetrahydro-2H-pyran-4-yl)-4H-1,2,4-triazol-3-yl)-2-butanesulfonamide or (2S,3R)-3-(5-chloro-2-pyrimidinyl)-N-(5-((2S)-1,4-dioxan-2-yl)-4-(tetrahydro-2H-pyran-4-yl)-4H-1,2,4-triazol-3-yl)-2-butanesulfonamide]", "values": [{"measurement": "EC50", "value": "> 4.2", "unit": "µM"}]}
{"molecule": "COCC(COC)n1c(NS(=O)(=O)[C@@H](C)[C@@H](OC(C)C)c2ncc(Cl)cn2)nnc1[C@@H]1COCCO1", "note": "(single isomer, unassigned) [Example 356.0, (1S,2S)-1-(5-chloro-2-pyrimidinyl)-N-(4-(1,3-dimethoxy-2-propanyl)-5-((2R)-1,4-dioxan-2-yl)-4H-1,2,4-triazol-3-yl)-1-(2-propanyloxy)-2-propanesulfonamide or (1S,2S)-1-(5-chloro-2-pyrimidinyl)-N-(4-(1,3-dimethoxy-2-propanyl)-5-((2S)-1,4-dioxan-2-yl)-4H-1,2,4-triazol-3-yl)-1-(2-propanyloxy)-2-propanesulfonamide]", "values": [{"measurement": "EC50", "value": 0.026, "unit": "µM"}]}
{"molecule": "COc1cccc(OC)c1-n1c(NS(=O)(=O)[C@@H](C)[C@H](C)c2ncc(C)cn2)nnc1[C@@H]1CCO[C@@H]1C", "note": "(single isomer, unassigned) [Example 121.0, (2S,3R)-N-(4-(2,6-dimethoxyphenyl)-5-((2R,3S)-2-methyltetrahydrofuran-3-yl)-4H-1,2,4-triazol-3-yl)-3-(5-methylpyrimidin-2-yl)butane-2-sulfonamide or (2S,3R)-N-(4-(2,6-dimethoxyphenyl)-5-((2S,3R)-2-methyltetrahydrofuran-3-yl)-4H-1,2,4-triazol-3-yl)-3-(5-methylpyrimidin-2-yl)butane-2-sulfonamide]", "values": [{"measurement": "EC50", "value": 0.88, "unit": "µM"}]}
{"molecule": "COCC1(n2c(NS(=O)(=O)[C@@H](C)[C@H](OC)c3ncc(Cl)cn3)nnc2[C@H]2COCCO2)CC1", "note": "(mixture of isomers) [Example 304.0, (1R,2S)-N-(5-((S)-1,4-dioxan-2-yl)-4-(1-(methoxymethyl)cyclopropyl)-4H-1,2,4-triazol-3-yl)-1-(5-chloropyrimidin-2-yl)-1-methoxypropane-2-sulfonamide and (1R,2S)-N-(5-((R)-1,4-dioxan-2-yl)-4-(1-(methoxymethyl)cyclopropyl)-4H-1,2,4-triazol-3-yl)-1-(5-chloropyrimidin-2-yl)-1-methoxypropane-2-sulfonamide]", "values": [{"measurement": "EC50", "value": 0.21, "unit": "µM"}]}
{"molecule": "CO[C@H](c1ncc(Cl)cn1)[C@H](C)S(=O)(=O)Nc1nnc([C@@H]2CCCO2)n1-c1ccccc1C", "note": "[Example 242.0, (1R,2S)-1-(5-chloro-2-pyrimidinyl)-1-methoxy-N-(4-(2-methylphenyl)-5-((2S)-tetrahydro-2-furanyl)-4H-1,2,4-triazol-3-yl)-2-propanesulfonamide]", "values": [{"measurement": "EC50", "value": 0.0087, "unit": "µM"}]}
{"molecule": "(1R,2S)-N-(4-(2,6-dimethoxyphenyl)-5-((S)-3-oxoisoindolin-1-yl)-4H-1,2,4-triazol-3-yl)-1-methoxy-1-(5-methylpyrimidin-2-yl)propane-2-sulfonamide or (1R,2S)-N-(4-(2,6-dimethoxyphenyl)-5-((R)-3-oxoisoindolin-1-yl)-4H-1,2,4-triazol-3-yl)-1-methoxy-1-(5-methylpyrimidin-2-yl)propane-2-sulfonamide [Example 237.0]", "values": [{"measurement": "EC50", "value": 0.59, "unit": "µM"}]}
{"molecule": "CCC(CC)n1c(NS(=O)(=O)[C@@H](C)[C@H](OC)c2ncc(Cl)cn2)nnc1[C@@H]1COCCO1", "note": "(single isomer, unassigned) [Example 336.0, (1R,2S)-1-(5-chloro-2-pyrimidinyl)-N-(5-((2R)-1,4-dioxan-2-yl)-4-(3-pentanyl)-4H-1,2,4-triazol-3-yl)-1-methoxy-2-propanesulfonamide or (1R,2S)-1-(5-chloro-2-pyrimidinyl)-N-(5-((2S)-1,4-dioxan-2-yl)-4-(3-pentanyl)-4H-1,2,4-triazol-3-yl)-1-methoxy-2-propanesulfonamide]", "values": [{"measurement": "EC50", "value": 1.4, "unit": "µM"}]}
{"molecule": "(2S,3R)-N-(4-(2,6-dimethoxyphenyl)-5-((R)-1,4-dioxan-2-yl)-4H-1,2,4-triazol-3-yl)-3-(5-methylpyrimidin-2-yl)butane-2-sulfonamide or (2S,3R)-N-(4-(2,6-dimethoxyphenyl)-5-((S)-1,4-dioxan-2-yl)-4H-1,2,4-triazol-3-yl)-3-(5-methylpyrimidin-2-yl)butane-2-sulfonamide [Example 205.0]", "values": [{"measurement": "EC50", "value": 0.019, "unit": "µM"}]}
{"molecule": "(2S,3R)-N-(4-(2,6-difluorophenyl)-5-((3S)-tetrahydro-2H-pyran-3-yl)-4H-1,2,4-triazol-3-yl)-3-(5-methyl-2-pyrimidinyl)-2-butanesulfonamide or (2S,3R)-N-(4-(2,6-difluorophenyl)-5-((3R)-tetrahydro-2H-pyran-3-yl)-4H-1,2,4-triazol-3-yl)-3-(5-methyl-2-pyrimidinyl)-2-butanesulfonamide [Example 23.0]", "values": [{"measurement": "EC50", "value": 0.11, "unit": "µM"}]}
{"molecule": "COc1cccc(OC)c1-n1c(NS(=O)(=O)[C@@H](C)[C@@H](OC(C)C)c2cnc(C)cn2)nnc1[C@H]1CCCO1", "note": "(single isomer, unassigned) [Example 67.0]", "values": [{"measurement": "EC50", "value": 0.18, "unit": "µM"}]}
{"molecule": "COc1cccc(OC)c1-n1c(NS(=O)(=O)CCc2ccc(F)cc2C#N)nnc1[C@@H]1CCCO1", "note": "(single isomer, unassigned) [Example 147.0, (S)-2-(2-Cyano-4-fluorophenyl)-N-(4-(2,6-dimethoxyphenyl)-5-(tetrahydrofuran-2-yl)-4H-1,2,4-triazol-3-yl)ethanesulfonamide or (R)-2-(2-cyano-4-fluorophenyl)-N-(4-(2,6-dimethoxyphenyl)-5-(tetrahydrofuran-2-yl)-4H-1,2,4-triazol-3-yl)ethanesulfonamide]", "values": [{"measurement": "EC50", "value": 0.037, "unit": "µM"}]}
{"molecule": "COc1cccc(OC)c1-n1c(NS(=O)(=O)CCc2ccc(Cl)cc2)nnc1[C@@H]1CCCO1", "note": "(single isomer, unassigned) [Example 145.0, (S)-2-(4-Chlorophenyl)-N-(4-(2,6-dimethoxyphenyl)-5-(tetrahydrofuran-2-yl)-4H-1,2,4-triazol-3-yl)ethanesulfonamide or (R)-2-(4-chlorophenyl)-N-(4-(2,6-dimethoxyphenyl)-5-(tetrahydrofuran-2-yl)-4H-1,2,4-triazol-3-yl)ethanesulfonamide]", "values": [{"measurement": "EC50", "value": 0.83, "unit": "µM"}]}
{"molecule": "COc1cccc(OC)c1-n1c(NS(=O)(=O)[C@@H](C)[C@H](OC)c2ncc(Cl)cn2)nnc1[C@H]1CCO[C@@H]1C", "note": "(single isomer, unassigned) [Example 115.0, (1R,2S)-1-(5-chloropyrimidin-2-yl)-N-(4-(2,6-dimethoxyphenyl)-5-((2R,3S)-2-methyltetrahydrofuran-3-yl)-4H-1,2,4-triazol-3-yl)-1-methoxypropane-2-sulfonamide or (1R,2S)-1-(5-chloropyrimidin-2-yl)-N-(4-(2,6-dimethoxyphenyl)-5-((2S,3R)-2-methyltetrahydrofuran-3-yl)-4H-1,2,4-triazol-3-yl)-1-methoxypropane-2-sulfonamide]", "values": [{"measurement": "EC50", "value": 0.21, "unit": "µM"}]}
